Measured values published in patent US11814371B2, “Heterocyclic compound” (MEDSHINE DISCOVERY INC., priority 2020, dated 2023).

Experiments:
[1] = Pharmacokinetic test in rat eyes after intragastric administration (eye tissue and plasma, LC-MS/MS); type: in vivo, male SD rats; settings: intragastric 75 mg/kg
Experimental: Male SD rats were used as test animals, and LC-MS/MS method was used to determine the drug concentrations in eye tissues at different times after intragastric administration of the test compound. The pharmacokinetic behavior of the compounds in the eyes of rats after intragastric administration was studied, and the pharmacokinetic characteristics were evaluated.
2.2 Test animals: Six healthy adult male rats were divided into three groups with 4 eyes in each group. Animals were purchased from Beijing Vital River Laboratory Animal Technology Co., Ltd.
2.3 Drug preparation: An appropriate amount of sample was weighed, and an appropriate amount of DMSO and labrasol were added in sequence according to the volume ratio of 10:90, then the mixture was stirred and sonicated to reach a clear state of 15 mg/mL for intragastric administration.
2.4 Administration: 6 male SD rats were divided into 3 groups, after fasting for one night, the intragastric administration group was administered with a volume of 5 mL/kg and a dose of 75 mg/kg.
Male rats were euthanized at 1, 4 and 8 hours after intragastric administration of compound 1, and eye tissues from 2 eyes of each rat were combined and the concentration of compound in the retina and choroid/sclera was measured.
The LC-MS/MS method was used to determine the content of the test compound in the eye tissues of rats after intragastric administration. The linear range of the method was from 2.00 to 6000 nmol/L; the eye tissue concentration data are presented in Table 3, in which each eye tissue concentration data was obtained from the combined left and right eyes of 2 rats.

[2] = tested on: rat DME model induced by CA-1 (100 ng); test: In vivo pharmacodynamic study on rat DME model induced by CA-1 (retinal thickness by OCT); design: species or system male SD rats
Experimental: 20 rats were selected from 25 male SD rats and divided into 5 groups according to their body weight, with 4 rats in each group and 1 spare rat in each group, and all the animals were examined by optical coherence tomography before modeling, 48 hours and 72 hours after modeling, respectively. The appropriate scanning position for measurement was selected and the retinal thickness was marked. Through the changes of retinal thickness in each group, the effects of the test compounds on improving retinal edema were compared, and the active compounds were screened. The above experimental operations of modeling and inspection should follow the order of the right eye first and then the left eye.
• Species: Rat • Strain: SD rat, SPF grade • Age and weight: 7-8 weeks old, weighing 250-300 g • Sex: Male • Supplier: Zhejiang Vital River Laboratory Animal Technology Co., Ltd. • Animal certificate number: • 2.2 Molding agent • Carbonic anhydrase-1 (CA-1, Sigma) • 3. Experimental methods and procedures • 3.1 Administration and modeling
On the day of modeling, all animals were first administered the vehicle or the test compound orally, and about 4 hours later, the animals were injected with physiological saline (5 µL/eye) or CA-I (100 ng/eye) into the vitreous cavity of both eyes for modeling, and the end time of injection in the second eye was recorded as 0 hour, and the vehicle (10 % DMSO + 90 % labrasol) or the test compound was administered orally to all animals at 4±0.5 hours, 20±0.5 hours, 28±0.5 hours, 44±0.5 hours, 52±0.5 hours and 68±0.5 hours after modeling, respectively.
Before modeling, 48 hours and 72 hours after modeling, animals were first anesthetized, and then examined by optical coherence tomography (OCT), and before anesthesia, appropriate mydriatic agents were used to ensure that the pupils of animals were completely dilated, and the animals were anesthetized by a combination of intramuscular injection of Zoletil (5 mg/kg) and Xylazine solution (3 mg/kg). OCT inspection requirements are as follows: • 1) The optic disc should be placed in the center of the infrared fundus image during data collection; • 2) the retinal scan was performed in a “pozidriv” type, with the crossover point over the optic disc, and the retina was scanned at the widest length. • 3) The software tracking function was used as much as possible for comparison of retinal thickness before and after administration, and if the tracking function was not available, the eye position was adjusted as much as possible to be consistent with that before administration, and the clarity of the tomographic images was ensured as much as possible to facilitate comparison of retinal thickness before and after administration.

[3] = oral 75 mg/kg, 48 hours after modeling
[4] = oral 75 mg/kg, 72 hours after modeling

Row | AUC0-8h Choroid and sclera [1] | Concentration of compound in Choroid and sclera ([1]; 1 hour) | Concentration of compound in Retina ([1]; 1 hour) | Concentration of compound in Choroid and sclera ([1]; 4 hours) | Concentration of compound in Retina ([1]; 4 hours) | Concentration of compound in Choroid and sclera ([1]; 8 hours) | concentration at 1 h ([1]; male, SD, plasma, oral, 1 hour, read-out: Concentration of compound in Plasma) | concentration at 4 h ([1]; male, SD, plasma, oral, 4 hours, read-out: Concentration of compound in Plasma) | concentration at 8 h ([1]; male, SD, plasma, oral, 8 hours, read-out: Concentration of compound in Plasma) | AUC(0-t) ([1]; male, SD, plasma, po, read-out: AUC0-8h Plasma) | SMILES | relief rate of retinal thickening ([2]; oral 50 mg/kg, 48 hours after modeling) | relief rate of retinal thickening ([2]; oral 50 mg/kg, 72 hours after modeling) | relief rate of retinal thickening [2, 3] | relief rate of retinal thickening [2, 4]
1 | 2803 nmol·h/kg | 640 nmol/kg | 90.8 nmol/kg | 450 nmol/kg | 147 nmol/kg | 82 nmol/kg | 3.69 µM | 6.44 µM | 0.729 µM | 22 µM·h | COc1ccc(F)c(CNC(=O)c2cn(Cc3ccc(Cn4cc(F)ccc4=O)cc3)nc2C2COC2)c1F [Compound 1] | 19% | 79% | 100% | 100%
2 |  |  |  |  |  |  |  |  |  |  | COc1ccc(F)c(CNC(=O)c2cn(Cc3ccc(Cn4cc(F)ccc4=O)c(F)c3)nc2C2COC2)c1F [Compound 8] |  |  | 84% | 116%
